Experimental findings from PubChem BioAssay (NCI) are described below.

Holding throughout (experiment): NCI-60 cell line screen, 48 h
Experiment [1] has as its system KM12 colon.
The test system of experiment [2] is K-562 leukemia.
Experiment [3] relates to 786-0 renal.
Experiment [4] deals with NCI-H23 lung.
Experiment [5] concerns HT29 colon.
The test system of experiment [6] is OVCAR-8 ovarian.
In experiment [7] the test system is SW-620 colon.
The test system of experiment [8] is HS 578T breast.

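96-well plates; 48 h exposure; 5 concentrations. Endpoints by linear interpolation between flanking doses. Not reached: highest tested concentration assigned. The concentration for 50% growth inhibition is given as GI50. Definition used: TGI = concentration required for complete inhibition of growth.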

With `NCCCOc1cc2ccccc2cc1C(=O)NCCCOc1cc2ccccc2cc1C(=O)Nc1ccc(Cl)cc1O`, the GI50 in experiment [1] was 0.288 µM; in experiment [2] it was 0.262 µM; in experiment [3], 0.199 µM; in experiment [4] it was 0.598 µM; in experiment [5], 0.411 µM; in experiment [6], 0.24 µM. Moreover, the GI50 in experiment [7] is 0.189 µM; in experiment [8], 1.86 µM. Besides, the TGI in experiment [1] came to 0.983 µM; in experiment [2] it was 1.02 µM; in experiment [3], 0.441 µM; in experiment [4], 2.3 µM; in experiment [5] it was 1.61 µM; in experiment [6], 0.557 µM. For the same compound, the values for the TGI in experiment [7] and in experiment [8] were 0.381 µM and 4.39 µM, respectively.
`Nc1c(C(=O)Nc2ccccc2Cl)sc2nc3c(cc12)C(=O)CCC3`: the GI50 in experiment [1] is 0.592 µM; in experiment [2] it was 0.493 µM; in experiment [3], 37.7 µM; in experiment [4], 2.04 µM; in experiment [5], 0.61 µM; in experiment [6], above 25 µM. The GI50 in experiment [7] was 0.556 µM; in experiment [8], 3.56 µM. Besides, the TGI in experiment [1], in experiment [2], in experiment [3], in experiment [4], in experiment [5] and in experiment [6] was above 100 µM throughout. The TGI in experiment [7] and in experiment [8] was above 100 µM each time.
Turning to `Cn1cc(-c2csc(-c3cn(C)c4ccc(F)cc34)n2)c2cnccc21`, the GI50 in experiment [1] is 1.79 µM; in experiment [2], 1.7 µM; in experiment [3], 1.51 µM; in experiment [4], 1.94 µM; in experiment [5], 1.47 µM; in experiment [6], 2.02 µM. Further, the GI50 is 1.88 µM in experiment [7] and 2.36 µM in experiment [8]. The TGI in experiment [1] came out at 3.36 µM; in experiment [2] it was 3.78 µM; in experiment [3], 2.96 µM; in experiment [4] it was 3.58 µM; in experiment [5], 3 µM; in experiment [6], 3.93 µM. The TGI is 3.59 µM in experiment [7] and 5.12 µM in experiment [8].
Consider `Oc1ccc(N=Nc2nccs2)c(O)c1`, for which the GI50 in experiment [1] was 4.57 µM; in experiment [2], 3.58 µM; in experiment [3] it was 3.61 µM; in experiment [4], 5.36 µM; in experiment [5], 3.61 µM; in experiment [6] it was 3.75 µM. Also, the GI50 is 5 µM in experiment [7] and 13.6 µM in experiment [8]. The TGI was 22.7 µM in experiment [1]; 34.3 µM in experiment [2]; 27.7 µM in experiment [3]; 28.7 µM in experiment [4]; 23.1 µM in experiment [5]; 23 µM in experiment [6]. For the same compound, the TGI in experiment [7] came out at 22.3 µM; in experiment [8], 78.1 µM.
`NC(N)=N/N=C(\N=Nc1ccccc1)c1ccc(Cl)cc1`: the GI50 is 2.15 µM in experiment [1]; 1.2 µM in experiment [2]; 2.03 µM in experiment [3]; 14.4 µM in experiment [4]; 2.29 µM in experiment [5]; 2.81 µM in experiment [6]. Also, the values for the GI50 in experiment [7] and in experiment [8] were 1.41 µM and 4.79 µM, respectively. The TGI is 7.76 µM in experiment [1]; 6.37 µM in experiment [2]; 8.36 µM in experiment [3]; 30 µM in experiment [4]; 5.39 µM in experiment [5]; 9.58 µM in experiment [6]. In addition, the figures for the TGI in experiment [7] and in experiment [8] were 3.54 µM and 46.6 µM, respectively.
Regarding `COc1ccc(-c2nn(-c3cccc(Cl)c3)cc2-c2nc(N)[nH]c(=O)c2C#N)cc1`, the GI50 was 3.84 µM in experiment [1]; 3.45 µM in experiment [2]; 4.65 µM in experiment [3]; 5.44 µM in experiment [4]; 4.29 µM in experiment [5]; 10.1 µM in experiment [6]. Besides, the values for the GI50 in experiment [7] and in experiment [8] were 4.38 µM and 3.55 µM, respectively. Further, the TGI is 15.2 µM in experiment [1]; above 100 µM in experiment [2]; 33.5 µM in experiment [3]; 46.2 µM in experiment [4]; 20 µM in experiment [5]; 60.3 µM in experiment [6]. Besides, the results for the TGI in experiment [7] and in experiment [8] were 34.2 µM and 40.3 µM, respectively.
As to `Cc1ccc2occ/c(=N\Nc3ccccc3)c2c1`, the TGI is 78.5 µM in experiment [1]; above 100 µM in experiment [2]; above 100 µM in experiment [3]; above 100 µM in experiment [4]; above 100 µM in experiment [5]; above 100 µM in experiment [6]. For the same compound, the TGI in experiment [7] and in experiment [8] was above 100 µM each time.
In the case of `C=C1C(O)C2C(=C(C)C13CC3)C(=O)C(C)(C)C2OC` (stereo not given), the GI50 was above 100 µM in experiment [1]; 42.9 µM in experiment [2]; above 100 µM in experiment [3]; above 100 µM in experiment [4]; above 100 µM in experiment [5]; 71.9 µM in experiment [6]. For the same compound, the figures for the GI50 in experiment [7] and in experiment [8] were above 100 µM and 59.6 µM, respectively. The TGI in experiment [1], in experiment [2], in experiment [3], in experiment [4], in experiment [5] and in experiment [6] was above 100 µM in each case. Further, the TGI in experiment [7] and in experiment [8] was above 100 µM in each case.
